From patent US12252475B2, “Crystal forms of immunomodulators” (Curis, Inc., priority 2017, dated 2025)
Values after ≈ are worked out from the molar mass of the structure shown. Where two headings read alike, the source gives them in different places.

Assays:
Type in all cases: physicochemical
[1] = Solid stability of anhydrous crystal Form A on storage (XRPD form, TGA, HPLC purity); details: for HPLC Purity (area %): solid
Method: (§1) Purity analysis was performed on an Agilent HP1100 series system equipped with a diode array detector and using ChemStation software vB.04.03 using the method detailed below in Table 3.
Thermogravimetric analysis (TGA) data were collected using a TA Q500/Q5000 TGA from TA Instruments. Differential scanning calorimetry (DSC) was performed using a TA Q200/Q2000 DSC from TA Instruments.
About 40 mg of a sample of formula (I) Form A was kept at each corresponding condition for one month without significant changes. […] No significant effect of the shoulder peaks on form or HPLC purity was observed.
Samples of formula (I) anhydrous crystalline Form A were stored as solids at 25° C./60% RH, 30° C./˜56%, and 40° C./75% RH for the time periods listed below. The samples were prepared in duplicate with an offset of 2 weeks. Each replicate was stored in a different container.

[2] = Solution stability of Form A in water/organic solvent mixtures (HPLC purity); details: for HPLC purity, API (RRT 1.00): about 10 mg/mL; for chemical purity in solution: time 0, across water/organic solvent mixtures
Method: as §1
Samples of formula (I) anhydrous crystalline Form A were stored as solutions in water mixed with acetonitrile, tetrahydrofuran, isopropyl alcohol, or ethanol at room temperature and 35° C. for 7-8 days. The sample concentration was about 10 mg/mL and was kept stirring.

[3] = Solubility in simulated gastric fluid and pH-adjusted water at room temperature; details: thermodynamic from solid
Text: The pH values of the aqueous solutions after the solubility test were 5.13 and 5.15, respectively.

[4] = Equilibrium solubility in water; details: for Final Form / solubility at 6 h: Water; for Final Form: solids checked by XRPD; for solubility at 6 h: thermodynamic from solid, equilibrated 6 hrs, HPLC
Method: Equilibrium solubility of formula (I) anhydrous Form A was measured in the water at 20° C. and 30° C. All samples were equilibrated at temperature for 6 hrs, and the solubility of supernatant was measured by HPLC, while the solids were checked by XRPD. (See Table 10.)

[5] = Dynamic vapor sorption (DVS)
[6] = Seed (after ground), 5° C., sealed

Final Form ([1]; 25° C., 60% RH, 1 month): Form A | TGA (%) ([1]; 25° C., 60% RH, 1 month): 0.60% | Final Form ([1]; 25° C., 60% RH, 3 months): Form A | TGA (%) ([1]; 25° C., 60% RH, 3 months): 2.8% | Final Form ([1]; 40° C., 75% RH, 1 month): Form A | TGA (%) ([1]; 40° C., 75% RH, 1 month): 1.0% | Final Form ([1]; 40° C., 75% RH, 3 months): Form A | TGA (%) ([1]; 40° C., 75% RH, 3 months): 1.9% | Final Form ([1]; 60° C., sealed, 1 month): Form A | TGA (%) ([1]; 60° C., sealed, 1 month): 0.6% | Final Form ([1]; 60° C., sealed, 3 months): Form A | TGA (%) ([1]; 60° C., sealed, 3 months): 2.1% | Final Form ([1]; Initial): Form A | TGA (%) ([1]; Initial): 0.40% | Final Form [1, 6]: Form A | TGA (%) [1, 6]: 0.4% | solid form and particle morphology after storage ([1]; one month and three months at 25° C./60% RH, 40° C./75% RH, and 60° C.): remained unchanged | degradation (chemical purity of solid sample) after storage ([1]; solid sample of about 40 mg, storage for one month): no significant degradation was observed | HPLC Purity (area %) ([1]; 25° C., 60% RH, 1 month): 99.83 area % | HPLC Purity (area %) ([1]; 25° C., 60% RH, 3 months): 99.80 area % | HPLC Purity (area %) ([1]; 40° C., 75% RH, 1 month): 99.81 area % | HPLC Purity (area %) ([1]; 40° C., 75% RH, 3 months): 99.79 area % | HPLC Purity (area %) ([1]; 60° C., sealed, 1 month): 99.85 area % | HPLC Purity (area %) ([1]; 60° C., sealed, 3 months): 99.74 area % | HPLC Purity (area %) ([1]; Initial): 99.86 area % | HPLC purity, API (RRT 1.00) ([2]; 35° C., ACN/H2O (1:1, v/v), 0 h): 99.58% | HPLC purity, API (RRT 1.00) ([2]; 35° C., ACN/H2O (1:1, v/v), 4 h): 99.44% | HPLC purity, API (RRT 1.00) ([2]; 35° C., ACN/H2O (1:1, v/v), 24 h): 98.42% | HPLC purity, API (RRT 1.00) ([2]; 35° C., EtOH/H2O (1:1, v/v), 0 h): 99.58% | HPLC purity, API (RRT 1.00) ([2]; 35° C., EtOH/H2O (1:1, v/v), 4 h): 99.47% | HPLC purity, API (RRT 1.00) ([2]; 35° C., EtOH/H2O (1:1, v/v), 24 h): 99.11% | HPLC purity, API (RRT 1.00) ([2]; 35° C., IPA/H2O (1:2, v/v), 0 h): 99.57% | HPLC purity, API (RRT 1.00) ([2]; 35° C., IPA/H2O (1:2, v/v), 4 h): 99.35% | HPLC purity, API (RRT 1.00) ([2]; 35° C., IPA/H2O (1:2, v/v), 24 h): 99.21% | HPLC purity, API (RRT 1.00) ([2]; 35° C., THF/H2O (1:1, v/v), 0 h): 99.56% | HPLC purity, API (RRT 1.00) ([2]; 35° C., THF/H2O (1:1, v/v), 4 h): 99.37% | HPLC purity, API (RRT 1.00) ([2]; 35° C., THF/H2O (1:1, v/v), 24 h): 98.30% | chemical purity in solution ([2]; 35° C.): about 99.6% | HPLC purity, API (RRT 1.00) ([2]; RT, ACN/H2O (1:1, v/v), 0 h): 99.65% | HPLC purity, API (RRT 1.00) ([2]; RT, ACN/H2O (1:1, v/v), 4 h): 99.51% | HPLC purity, API (RRT 1.00) ([2]; RT, ACN/H2O (1:1, v/v), 24 h): 99.24% | HPLC purity, API (RRT 1.00) ([2]; RT, EtOH/H2O (1:1, v/v), 0 h): 99.58% | HPLC purity, API (RRT 1.00) ([2]; RT, EtOH/H2O (1:1, v/v), 4 h): 99.47% | HPLC purity, API (RRT 1.00) ([2]; RT, EtOH/H2O (1:1, v/v), 24 h): 99.11% | HPLC purity, API (RRT 1.00) ([2]; RT, IPA/H2O (1:2, v/v), 0 h): 99.59% | HPLC purity, API (RRT 1.00) ([2]; RT, IPA/H2O (1:2, v/v), 4 h): 99.52% | HPLC purity, API (RRT 1.00) ([2]; RT, IPA/H2O (1:2, v/v), 24 h): 99.21% | HPLC purity, API (RRT 1.00) ([2]; RT, THF/H2O (1:1, v/v), 0 h): 99.64% | HPLC purity, API (RRT 1.00) ([2]; RT, THF/H2O (1:1, v/v), 4 h): 99.47% | HPLC purity, API (RRT 1.00) ([2]; RT, THF/H2O (1:1, v/v), 24 h): 99.19% | chemical purity in solution ([2]; room temperature): about 99.6% | solubility ([3]; simulated gastric fluid (SGF), simulated gastric fluid, read-out: solubility in simulated gastric fluid (SGF)): > 114 mg/mL | solubility ([3]; water with pH adjusted by NaOH and HCl, aqueous buffer, pH 7.08 (pH 5.13 after test), read-out: solubility in water solution with pH adjusted by NaOH and HCl): 87.5 to 117 mg/mL (≈ 243 to 324 mM) | solubility ([3]; water with pH adjusted by NaOH and HCl, aqueous buffer, pH 9.14 (pH 5.15 after test), read-out: solubility in water solution with pH adjusted by NaOH and HCl): 83.5 to 111 mg/mL (≈ 232 to 309 mM) | Final Form ([4]; 20° C.): Form A | Final Form ([4]; 30° C.): Form A | form change during solubility testing ([4]; XRPD, FIG. 9): No form change was observed | solubility at 6 h ([4]; 20° C.): 125 mg/mL (≈ 347 mM) | solubility at 6 h ([4]; 30° C.): 137 mg/mL (≈ 381 mM) | hygroscopicity ([5]; DVS, up to 80% RH): slightly hygroscopic | form change during DVS testing ([5]; XRPD before and after DVS, FIG. 11): No form change was observed | mass change in DVS ([5]; up to 80% RH): about 0.66%
SMILES: CC(O)[C@H](NC(=O)N[C@@H](CC(N)=O)c1nc([C@@H](N)CO)no1)C(=O)O (stereo in doubt) [Form A]
